Measured values: ChEMBL document CHEMBL1201862, “PubChem BioAssay data set” (2004)
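In this assay, cells in 96-well plates receive the compound at five concentrations for 48 hours. Endpoints are linearly interpolated between the surrounding concentrations. At the GI50, growth is halved.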 Calls of active or inactive are those of the source. Rule as the data show it: active = GI50 up to about 1.1 µM and inactive = higher.

Key:
Assay in all cases: NCI anticancer screen, dose series, 48 h
CCRF-CEM = system: CCRF-CEM
COLO 205 = system: COLO 205
EKVX = system: EKVX
HOP-92 = system: HOP-92
K562 = system: K562
LOX IMVI = system: LOX IMVI
Malme-3M = system: Malme-3M
NCI-H226 = system: NCI-H226
NCI-H522 = system: NCI-H522
OVCAR-3 = system: OVCAR-3
OVCAR-5 = system: OVCAR-5
RXF 393 = system: RXF 393
SF-295 = system: SF-295
SK-MEL-5 = system: SK-MEL-5
SK-OV-3 = system: SK-OV-3
SNB-75 = system: SNB-75
SW-620 = system: SW-620
TK-10 = system: TK-10
UACC-62 = system: UACC-62
NCI-H460 = system: NCI-H460

| SMILES | GI50 (CCRF-CEM) | GI50 (COLO 205) | GI50 (EKVX) | GI50 (HOP-92) | GI50 (K562) | GI50 (LOX IMVI) | GI50 (Malme-3M) | GI50 (NCI-H226) | GI50 (NCI-H522) | GI50 (OVCAR-3) | GI50 (OVCAR-5) | GI50 (RXF 393) | GI50 (SF-295) | GI50 (SK-MEL-5) | GI50 (SK-OV-3) | GI50 (SNB-75) | GI50 (SW-620) | GI50 (TK-10) | GI50 (UACC-62) | GI50 (NCI-H460) |
| --- | --- | --- | --- | --- | --- | --- | --- | --- | --- | --- | --- | --- | --- | --- | --- | --- | --- | --- | --- | --- |
| CCC(C#N)N(Cc1ccc(CN(C(=O)c2ccccc2)C(C#N)CC)cc1)C(=O)c1ccccc1 (stereo unspecified) | 17.8 µM (inactive) | 14.7 µM (inactive) | 22.8 µM (inactive) | 13.2 µM (inactive) | 13.9 µM (inactive) | 15.9 µM (inactive) | 31.6 µM (inactive) | 32.5 µM (inactive) | 23 µM (inactive) | 16.7 µM (inactive) | 37.8 µM (inactive) | 28.1 µM (inactive) | 17.6 µM (inactive) | 12.8 µM (inactive) | 23.9 µM (inactive) | 22.3 µM (inactive) | 28.5 µM (inactive) | 12.9 µM (inactive) | 12.1 µM (inactive) |  |
| CN(C)CC1CCC/C(=C\c2ccc(N(C)C)cc2)C1=O (stereo unspecified) | > 100 µM (inactive) | 2.58 µM (inactive) | 16.7 µM (inactive) | 3.33 µM (inactive) | 28.1 µM (inactive) | 1.67 µM (inactive) | 12.1 µM (inactive) | 18.2 µM (inactive) | 1.75 µM (inactive) | 2.84 µM (inactive) | 13.9 µM (inactive) | 8.13 µM (inactive) | 18.2 µM (inactive) | 17.6 µM (inactive) | 17.8 µM (inactive) | 17 µM (inactive) | 1.85 µM (inactive) | 1.97 µM (inactive) | 15.8 µM (inactive) | 12 µM (inactive) |
| c1ccc(/N=C2\c3ccccc3C3=NCCCN32)cc1 | 61.1 µM (inactive) | 62.1 µM (inactive) | 30.6 µM (inactive) | 13.8 µM (inactive) | 29.2 µM (inactive) | 47.1 µM (inactive) | 62.8 µM (inactive) | 27.2 µM (inactive) | 18.1 µM (inactive) | 75 µM (inactive) | > 100 µM (inactive) | 34.7 µM (inactive) | 92 µM (inactive) | 28 µM (inactive) |  | 50.9 µM (inactive) | 43.9 µM (inactive) | 50 µM (inactive) | 61.5 µM (inactive) | 55.1 µM (inactive) |
| CSc1ccc(NC(=O)C2CCCCC2C(=O)O)cc1 (stereo unspecified) | > 100 µM (inactive) | > 100 µM (inactive) | > 100 µM (inactive) | > 100 µM (inactive) | > 100 µM (inactive) | > 100 µM (inactive) | > 100 µM (inactive) | > 100 µM (inactive) | > 100 µM (inactive) | > 100 µM (inactive) | > 100 µM (inactive) | > 100 µM (inactive) | > 100 µM (inactive) | > 100 µM (inactive) | > 100 µM (inactive) | > 100 µM (inactive) | > 100 µM (inactive) | > 100 µM (inactive) | > 100 µM (inactive) | > 100 µM (inactive) |
| O=c1[nH]c(=O)c2c([nH]1)[nH]c1ccc(Br)cc12 | 82.2 µM (inactive) | > 100 µM (inactive) | > 100 µM (inactive) | 62.5 µM (inactive) |  | > 100 µM (inactive) | > 100 µM (inactive) | > 100 µM (inactive) | > 100 µM (inactive) |  | > 100 µM (inactive) | > 100 µM (inactive) | > 100 µM (inactive) | 95.1 µM (inactive) | 13.6 µM (inactive) | 74.5 µM (inactive) | > 100 µM (inactive) | > 100 µM (inactive) | > 100 µM (inactive) |  |
| Clc1cccc(-c2nc3cccc4c3n2Cc2ncccc2-4)c1 | > 100 µM (inactive) | > 100 µM (inactive) | > 100 µM (inactive) | 44.6 µM (inactive) | > 100 µM (inactive) |  | > 100 µM (inactive) | 11.8 µM (inactive) | > 100 µM (inactive) | 32.1 µM (inactive) | > 100 µM (inactive) | 21.9 µM (inactive) | 41.6 µM (inactive) |  | 96.8 µM (inactive) | 9.04 µM (inactive) | > 100 µM (inactive) | 42.2 µM (inactive) | 56.6 µM (inactive) | 6.67 µM (inactive) |
| COc1ccc(C2CCc3cc4c(cc3/C2=N/OC(C)=O)OCO4)cc1OC (stereo unspecified) | 25.6 µM (inactive) | 22.5 µM (inactive) | 29.2 µM (inactive) | 23.1 µM (inactive) | 20.2 µM (inactive) | 15.9 µM (inactive) | 20.1 µM (inactive) | 12.6 µM (inactive) | 12 µM (inactive) | 15.3 µM (inactive) | 32.9 µM (inactive) | 14 µM (inactive) | 23 µM (inactive) | 8.65 µM (inactive) | 28.8 µM (inactive) | 18.3 µM (inactive) | 27.4 µM (inactive) | 39 µM (inactive) | 18.2 µM (inactive) |  |
| COc1ccc(-n2c(N)c(C#N)c(C#N)c2-c2ccco2)cc1 | > 100 µM (inactive) | > 100 µM (inactive) | 5.01 µM (inactive) | 16.8 µM (inactive) | 59.7 µM (inactive) | > 100 µM (inactive) | > 100 µM (inactive) | > 100 µM (inactive) | 46.7 µM (inactive) | > 100 µM (inactive) | > 100 µM (inactive) | > 100 µM (inactive) | > 100 µM (inactive) | 78.5 µM (inactive) | > 100 µM (inactive) | 11.9 µM (inactive) | > 100 µM (inactive) | > 100 µM (inactive) | 38.5 µM (inactive) |  |
| O=C1OC(/C=C/c2ccccc2)C(=O)C1=O (stereo unspecified) | > 100 µM (inactive) | > 100 µM (inactive) | > 100 µM (inactive) | > 100 µM (inactive) | > 100 µM (inactive) |  | > 100 µM (inactive) | > 100 µM (inactive) | > 100 µM (inactive) |  | > 100 µM (inactive) | > 100 µM (inactive) | > 100 µM (inactive) |  | > 100 µM (inactive) | > 100 µM (inactive) | > 100 µM (inactive) | > 100 µM (inactive) | > 100 µM (inactive) | > 100 µM (inactive) |
| Oc1cc2c(cc1C(c1ccc3c(c1)OCO3)N1CCN(C(c3ccc4c(c3)OCO4)c3cc4c(cc3O)OCO4)CC1)OCO2 (stereo unspecified) |  | 31 µM (inactive) | 35.2 µM (inactive) | 23.2 µM (inactive) | 21.4 µM (inactive) | 3.24 µM (inactive) | 15.6 µM (inactive) | 16.1 µM (inactive) | 14.2 µM (inactive) | 17.1 µM (inactive) | 18.2 µM (inactive) | 26.2 µM (inactive) | 16.7 µM (inactive) | 18.6 µM (inactive) | 27 µM (inactive) | 3.46 µM (inactive) | 12.7 µM (inactive) | 20.2 µM (inactive) | 14.4 µM (inactive) | 38.6 µM (inactive) |
| COc1cc(O)c2c(c1)OCC(Cc1ccc(O)cc1)C2=O (stereo unspecified) | > 100 µM (inactive) | > 100 µM (inactive) |  | 37.9 µM (inactive) | > 100 µM (inactive) | > 100 µM (inactive) | > 100 µM (inactive) | > 100 µM (inactive) | > 100 µM (inactive) | 60.4 µM (inactive) | > 100 µM (inactive) | 21.1 µM (inactive) | 51.1 µM (inactive) | 44.4 µM (inactive) | > 100 µM (inactive) | 74.3 µM (inactive) | > 100 µM (inactive) | > 100 µM (inactive) | > 100 µM (inactive) | > 100 µM (inactive) |
| C[C@]12CCC(=O)C=C1CC[C@@H]1C2CC[C@]2(C)Nc3c(ncn3-c3ccc(F)cc3)CC12 (stereo partly specified) | 21 µM (inactive) | 15.7 µM (inactive) | 27.3 µM (inactive) | 33.2 µM (inactive) | 5.82 µM (inactive) |  | 18.9 µM (inactive) | 49.2 µM (inactive) | 15 µM (inactive) | 29.2 µM (inactive) | 40.7 µM (inactive) | 5.56 µM (inactive) | 15.3 µM (inactive) | 13.5 µM (inactive) | 39.3 µM (inactive) | 17.5 µM (inactive) | 31.6 µM (inactive) | 27.7 µM (inactive) | 16.1 µM (inactive) | 21.7 µM (inactive) |
| CC(C)=CCC/C(C)=C/Cc1cc(/C=C/c2cc(O)c(CC=C(C)C)c(O)c2)cc(O)c1O [MAPPAIN] |  | 17.3 µM (inactive) | 2.96 µM (inactive) | 3.93 µM (inactive) | 2.49 µM (inactive) | 2.31 µM (inactive) | 6.38 µM (inactive) | 8.59 µM (inactive) | 0.141 µM (active) | 1.99 µM (inactive) | 4.36 µM (inactive) | 2.46 µM (inactive) | 4.65 µM (inactive) | 2.12 µM (inactive) | 8.87 µM (inactive) | 2.58 µM (inactive) | 3.54 µM (inactive) | 3.32 µM (inactive) | 2.7 µM (inactive) | 2.68 µM (inactive) |
| Nc1nc(O)c([I+]c2ccccc2)c(=O)[nH]1 | > 100 µM (inactive) | > 100 µM (inactive) | > 100 µM (inactive) | > 100 µM (inactive) | > 100 µM (inactive) | > 100 µM (inactive) | > 100 µM (inactive) | > 100 µM (inactive) | > 100 µM (inactive) | > 100 µM (inactive) | > 100 µM (inactive) | > 100 µM (inactive) | > 100 µM (inactive) | > 100 µM (inactive) |  | > 100 µM (inactive) | > 100 µM (inactive) | > 100 µM (inactive) |  | > 100 µM (inactive) |
| CC(C)=CCC/C(C)=C/CC/C(C)=C/CC/C=C(\C)CC/C=C(\C)CCC1SC1(C)C (stereo unspecified) | > 100 µM (inactive) | > 100 µM (inactive) | > 100 µM (inactive) | 64 µM (inactive) | > 100 µM (inactive) | > 100 µM (inactive) | > 100 µM (inactive) | > 100 µM (inactive) | > 100 µM (inactive) |  | > 100 µM (inactive) | > 100 µM (inactive) | > 100 µM (inactive) | > 100 µM (inactive) | > 100 µM (inactive) | > 100 µM (inactive) | 52.5 µM (inactive) | > 100 µM (inactive) | > 100 µM (inactive) | > 100 µM (inactive) |
